T1: N-acylethanolamine acid amidase (NAAA) (Rattus norvegicus, UniProt Q5KTC7)
T1 sequence (Q5KTC7 34-130): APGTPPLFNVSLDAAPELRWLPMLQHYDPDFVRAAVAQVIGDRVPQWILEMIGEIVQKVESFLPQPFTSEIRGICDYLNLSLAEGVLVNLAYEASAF
T1 sequence (Q5KTC7 131-362): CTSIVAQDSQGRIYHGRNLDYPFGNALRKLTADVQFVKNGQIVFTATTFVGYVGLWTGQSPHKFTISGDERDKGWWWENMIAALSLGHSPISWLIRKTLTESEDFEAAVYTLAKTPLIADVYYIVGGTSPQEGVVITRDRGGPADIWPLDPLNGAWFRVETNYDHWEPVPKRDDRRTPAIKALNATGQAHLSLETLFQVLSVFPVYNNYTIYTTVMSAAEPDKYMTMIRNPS


Assays:
[1] = biological target: T1, N-acylethanolamine acid amidase (NAAA); assay: LC/MS enzyme activity assay in HEK-rNAAA cell preparations; assay type: biochemical
[2] = substrate: CCCCCC/C=C\CCCCCCCCC(=O)NCCO; assay: Michaelis-Menten analysis by LC/MS of heptadecenoic acid formation; assay type: biochemical, Rattus norvegicus

| IC50 [1] [nM] | Molecule | Vmax [2] [µmol/min/mg] |
| --- | --- | --- |
| 11 | C[C@@H]1OC(=O)[C@@H]1NC(=O)OCCCCCc1ccccc1 [ARN077, 5-phenylpentyl N-[(2S,3R)-2-methyl-4-oxo-oxetan-3-yl] carbamate] |  |
|  | N-acylethanolamine acid amidase (NAAA) (Rattus norvegicus) (protein) chain 1: APGTPPLFNVSLDAAPELRWLPMLQHYDPDFVRAAVAQVIGDRVPQWILEMIGEIVQKVESFLPQPFTSEIRGICDYLNLSLAEGVLVNLAYEASAF chain 2: CTSIVAQDSQGRIYHGRNLDYPFGNALRKLTADVQFVKNGQIVFTATTFVGYVGLWTGQSPHKFTISGDERDKGWWWENMIAALSLGHSPISWLIRKTLTESEDFEAAVYTLAKTPLIADVYYIVGGTSPQEGVVITRDRGGPADIWPLDPLNGAWFRVETNYDHWEPVPKRDDRRTPAIKALNATGQAHLSLETLFQVLSVFPVYNNYTIYTTVMSAAEPDKYMTMIRNPS | 0.0154 |
